# The supplement of paper PMC10307832
# Assays:
# Test in all cases: relative viability (nuclei count vs DMSO), 5 days (fraction); higher = more cells survive
# A-427 = test system: A-427
# Outline: (§1)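 Dosing by pin tool came one day after lung cancer cell lines were seeded in 1536-well plates, using either one drug or a fixed anchor-drug dose plus five library-drug doses (not always all listed) in √10 steps. After 5 days, nuclei were counted on 4× images. Relative viability is treated-well nuclei count divided by vehicle-well nuclei count, and values are medians of duplicate plates.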
# ABC-1 = test system: ABC-1
# Outline: as §1
# BEN = test system: BEN
# Outline: as §1
# CAL-12T = test system: CAL-12T
# Outline: as §1
# HARA = test system: HARA
# Outline: as §1
# LCLC-103H = test system: LCLC-103H
# Outline: as §1
# LOU-NH91 = test system: LOU-NH91
# Outline: as §1
# NCI-H1651 = test system: NCI-H1651
# Outline: as §1
# NCI-H1666 = test system: NCI-H1666
# Outline: as §1
# NCI-H1734 = test system: NCI-H1734
# Outline: as §1
# NCI-H1944 = test system: NCI-H1944
# Outline: as §1
# NCI-H1975 = test system: NCI-H1975
# Outline: as §1
# NCI-H2085 = test system: NCI-H2085
# Outline: as §1
# NCI-H2126 = test system: NCI-H2126
# Outline: as §1
# NCI-H460 = test system: NCI-H460
# Outline: as §1
# NCI-H520 = test system: NCI-H520
# Outline: as §1
# NCI-H596 = test system: NCI-H596
# Outline: as §1
# NCI-H647 = test system: NCI-H647
# Outline: as §1
# NCI-H661 = test system: NCI-H661
# Outline: as §1
# NCI-H727 = test system: NCI-H727
# Outline: as §1
# NCI-H838 = test system: NCI-H838
# Outline: as §1
# RERF-LC-KJ = test system: RERF-LC-KJ
# Outline: as §1
# SW 900 = test system: SW 900
# Outline: as §1
compound,measurement,setting,value
CCNC(=O)c1noc(-c2cc(C(C)C)c(O)cc2O)c1-c1ccc(CN2CCOCC2)cc1 [Luminespib] + COc1cccc2cc(-c3nc([C@H]4CC[C@H](C(=O)O)CC4)n4ncnc(N)c34)[nH]c12 [OSI-027] (partner 0.5 µM),relative viability,A-427; first compound 0.002 µM,0.462
same,relative viability,A-427; first compound 0.006325 µM,0.396
same,relative viability,A-427; first compound 0.02 µM,0.366
same,relative viability,A-427; first compound 0.06325 µM,0.158
same,relative viability,A-427; first compound 0.2 µM,0.121
same,relative viability,ABC-1; first compound 0.002 µM,0.532
same,relative viability,ABC-1; first compound 0.006325 µM,0.476
same,relative viability,ABC-1; first compound 0.02 µM,0.312
same,relative viability,ABC-1; first compound 0.06325 µM,0.195
same,relative viability,ABC-1; first compound 0.2 µM,0.186
same,relative viability,BEN; first compound 0.002 µM,0.288
same,relative viability,BEN; first compound 0.006325 µM,0.292
same,relative viability,BEN; first compound 0.02 µM,0.316
same,relative viability,BEN; first compound 0.06325 µM,0.212
same,relative viability,BEN; first compound 0.2 µM,0.183
same,relative viability,CAL-12T; first compound 0.002 µM,0.799
same,relative viability,CAL-12T; first compound 0.006325 µM,0.63
same,relative viability,CAL-12T; first compound 0.02 µM,0.21
same,relative viability,CAL-12T; first compound 0.06325 µM,0.0898
same,relative viability,CAL-12T; first compound 0.2 µM,0.0995
same,relative viability,HARA; first compound 0.002 µM,0.511
same,relative viability,HARA; first compound 0.006325 µM,0.281
same,relative viability,HARA; first compound 0.02 µM,0.381
same,relative viability,HARA; first compound 0.06325 µM,0.0542
same,relative viability,HARA; first compound 0.2 µM,0.0658
same,relative viability,LCLC-103H; first compound 0.002 µM,0.457
same,relative viability,LCLC-103H; first compound 0.006325 µM,0.471
same,relative viability,LCLC-103H; first compound 0.02 µM,0.35
same,relative viability,LCLC-103H; first compound 0.06325 µM,0.503
same,relative viability,LCLC-103H; first compound 0.2 µM,0.383
same,relative viability,LOU-NH91; first compound 0.002 µM,0.684
same,relative viability,LOU-NH91; first compound 0.006325 µM,0.74
same,relative viability,LOU-NH91; first compound 0.02 µM,0.492
same,relative viability,LOU-NH91; first compound 0.06325 µM,0.319
same,relative viability,LOU-NH91; first compound 0.2 µM,0.295
same,relative viability,NCI-H1651; first compound 0.002 µM,0.818
same,relative viability,NCI-H1651; first compound 0.006325 µM,0.622
same,relative viability,NCI-H1651; first compound 0.02 µM,0.42
same,relative viability,NCI-H1651; first compound 0.06325 µM,0.377
same,relative viability,NCI-H1651; first compound 0.2 µM,0.18
same,relative viability,NCI-H1666; first compound 0.002 µM,0.841
same,relative viability,NCI-H1666; first compound 0.006325 µM,0.801
same,relative viability,NCI-H1666; first compound 0.02 µM,0.853
same,relative viability,NCI-H1666; first compound 0.06325 µM,0.81
same,relative viability,NCI-H1666; first compound 0.2 µM,0.791
same,relative viability,NCI-H1734; first compound 0.002 µM,0.538
same,relative viability,NCI-H1734; first compound 0.006325 µM,0.555
same,relative viability,NCI-H1734; first compound 0.02 µM,0.352
same,relative viability,NCI-H1734; first compound 0.06325 µM,0.168
same,relative viability,NCI-H1734; first compound 0.2 µM,0.156
same,relative viability,NCI-H1944; first compound 0.002 µM,0.422
same,relative viability,NCI-H1944; first compound 0.006325 µM,0.359
same,relative viability,NCI-H1944; first compound 0.02 µM,0.365
same,relative viability,NCI-H1944; first compound 0.06325 µM,0.215
same,relative viability,NCI-H1944; first compound 0.2 µM,0.152
same,relative viability,NCI-H1975; first compound 0.002 µM,0.746
same,relative viability,NCI-H1975; first compound 0.006325 µM,0.677
same,relative viability,NCI-H1975; first compound 0.02 µM,0.187
same,relative viability,NCI-H1975; first compound 0.06325 µM,0.0795
same,relative viability,NCI-H1975; first compound 0.2 µM,0.0958
same,relative viability,NCI-H2085; first compound 0.002 µM,0.793
same,relative viability,NCI-H2085; first compound 0.006325 µM,0.779
same,relative viability,NCI-H2085; first compound 0.02 µM,0.395
same,relative viability,NCI-H2085; first compound 0.06325 µM,0.242
same,relative viability,NCI-H2085; first compound 0.2 µM,0.233
same,relative viability,NCI-H2126; first compound 0.002 µM,0.72
same,relative viability,NCI-H2126; first compound 0.006325 µM,0.651
same,relative viability,NCI-H2126; first compound 0.02 µM,0.533
same,relative viability,NCI-H2126; first compound 0.06325 µM,0.226
same,relative viability,NCI-H2126; first compound 0.2 µM,0.223
same,relative viability,NCI-H460; first compound 0.002 µM,0.702
same,relative viability,NCI-H460; first compound 0.006325 µM,0.586
same,relative viability,NCI-H460; first compound 0.02 µM,0.0482
same,relative viability,NCI-H460; first compound 0.06325 µM,0.0153
same,relative viability,NCI-H460; first compound 0.2 µM,0.0165
same,relative viability,NCI-H520; first compound 0.002 µM,0.247
same,relative viability,NCI-H520; first compound 0.006325 µM,0.27
same,relative viability,NCI-H520; first compound 0.02 µM,0.231
same,relative viability,NCI-H520; first compound 0.06325 µM,0.159
same,relative viability,NCI-H520; first compound 0.2 µM,0.158
same,relative viability,NCI-H596; first compound 0.002 µM,0.797
same,relative viability,NCI-H596; first compound 0.006325 µM,0.788
same,relative viability,NCI-H596; first compound 0.02 µM,0.415
same,relative viability,NCI-H596; first compound 0.06325 µM,0.642
same,relative viability,NCI-H596; first compound 0.2 µM,0.377
same,relative viability,NCI-H647; first compound 0.002 µM,0.717
same,relative viability,NCI-H647; first compound 0.006325 µM,0.626
same,relative viability,NCI-H647; first compound 0.02 µM,0.595
same,relative viability,NCI-H647; first compound 0.06325 µM,0.0814
same,relative viability,NCI-H647; first compound 0.2 µM,0.0562
same,relative viability,NCI-H661; first compound 0.002 µM,0.802
same,relative viability,NCI-H661; first compound 0.006325 µM,0.672
same,relative viability,NCI-H661; first compound 0.02 µM,0.58
same,relative viability,NCI-H661; first compound 0.06325 µM,0.199
same,relative viability,NCI-H661; first compound 0.2 µM,0.226
same,relative viability,NCI-H727; first compound 0.002 µM,0.72
same,relative viability,NCI-H727; first compound 0.006325 µM,0.549
same,relative viability,NCI-H727; first compound 0.02 µM,0.463
same,relative viability,NCI-H727; first compound 0.06325 µM,0.33
same,relative viability,NCI-H727; first compound 0.2 µM,0.23
same,relative viability,NCI-H838; first compound 0.002 µM,0.391
same,relative viability,NCI-H838; first compound 0.006325 µM,0.375
same,relative viability,NCI-H838; first compound 0.02 µM,0.275
same,relative viability,NCI-H838; first compound 0.06325 µM,0.134
same,relative viability,NCI-H838; first compound 0.2 µM,0.149
same,relative viability,RERF-LC-KJ; first compound 0.002 µM,0.584
same,relative viability,RERF-LC-KJ; first compound 0.006325 µM,0.536
same,relative viability,RERF-LC-KJ; first compound 0.02 µM,0.346
same,relative viability,RERF-LC-KJ; first compound 0.06325 µM,0.207
same,relative viability,RERF-LC-KJ; first compound 0.2 µM,0.195
same,relative viability,SW 900; first compound 0.002 µM,0.502
same,relative viability,SW 900; first compound 0.006325 µM,0.471
same,relative viability,SW 900; first compound 0.02 µM,0.131
same,relative viability,SW 900; first compound 0.06325 µM,0.0999
same,relative viability,SW 900; first compound 0.2 µM,0.0789
